From patent US20260200942A1, “PARP7 INHIBITORS AND THEIR APPLICATIONS” (CHONGQING PHARSCIN INNOBIO CO., LTD., priority 2023, published 2026)

molecular target: T1, PARP7 (Homo sapiens, UniProt Q7Z3E1); assay: PARP7 inhibitory activity assay (histone-coated 384-well plate, chemiluminescence); type: biochemical
T1 construct: purchased BPS 80527
T1 sequence (Q7Z3E1 1-657): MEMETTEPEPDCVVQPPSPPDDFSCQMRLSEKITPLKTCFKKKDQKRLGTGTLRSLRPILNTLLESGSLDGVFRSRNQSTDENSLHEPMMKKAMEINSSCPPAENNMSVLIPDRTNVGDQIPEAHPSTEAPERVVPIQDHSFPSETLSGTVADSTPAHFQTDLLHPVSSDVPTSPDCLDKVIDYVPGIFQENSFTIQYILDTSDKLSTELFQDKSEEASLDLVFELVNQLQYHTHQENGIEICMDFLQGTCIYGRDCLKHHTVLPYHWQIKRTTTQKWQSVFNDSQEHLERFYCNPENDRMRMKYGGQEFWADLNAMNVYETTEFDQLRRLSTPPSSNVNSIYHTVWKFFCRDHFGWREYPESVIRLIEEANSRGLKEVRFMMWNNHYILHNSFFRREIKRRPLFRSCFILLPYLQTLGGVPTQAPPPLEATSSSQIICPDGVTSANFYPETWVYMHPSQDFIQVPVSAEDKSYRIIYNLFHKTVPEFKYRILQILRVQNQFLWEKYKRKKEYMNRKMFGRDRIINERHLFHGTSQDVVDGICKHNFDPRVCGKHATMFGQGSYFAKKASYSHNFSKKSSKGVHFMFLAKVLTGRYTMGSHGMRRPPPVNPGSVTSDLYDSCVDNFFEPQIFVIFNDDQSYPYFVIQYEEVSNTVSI
Excerpt: Inhibition rate (%) calculation formula: […]

Row | IC50 [µM] | Compound
1 | 0.01 to 0.1 | O=C(C1CN(Cc2cc(C(F)(F)F)c(=O)[nH]n2)C1)N1CCN2c3ncc(C(F)(F)F)cc3COC[C@H]2C1 [Embodiment 42, (R)-4-(trifluoromethyl)-6-((3-(3-(trifluoromethyl)-7,7a,8,9,10,11-hexahydro-5H-pyrazino[2,1-c]pyrido[2,3-e][1,4]oxazepine-9-carbonyl)azetidin-1-yl)methyl)pyridazin-3(2H)-one]
2 | 0.01 to 0.1 | O=C(C1CN(Cc2cc(C(F)(F)F)c(=O)[nH]n2)C1)N1CCN2c3ncc(C(F)(F)F)cc3OCC[C@H]2C1 [Embodiment 40, (S)-4-(trifluoromethyl)-6-((3-(3-(trifluoromethyl)-7,7a,8,9,10,11-hexahydro-6H-pyrazino[1,2-d]pyrido[3,2-b][1,4]oxazepine-9-carbonyl)azetidin-1-yl)methyl)pyridazin-3(2H)-one]
3 | 0.01 to 0.1 | O=c1[nH]cc(CN[C@H]2C[C@@H](C(=O)N3CCN(c4ncc(C(F)(F)F)cn4)CC3)C2)cc1C(F)(F)F [Embodiment 19]
4 | 0.1 to 1 | O=C(C1CCN(Cc2c[nH]c(=O)c(C(F)(F)F)c2)CC1)N1CCN(c2ncc(C(F)(F)F)cn2)CC1 [Embodiment 18]
5 | 0.1 to 1 | O=c1[nH]nc(CN[C@H]2C[C@@H](C(=O)N3CCN(c4ncc(C(F)(F)F)cn4)CC3)C2)cc1C(F)(F)F [Embodiment 20]
6 | 1 to 10 | O=C([C@H]1CCC[C@H](NCc2c[nH]c(=O)c(C(F)(F)F)c2)C1)N1CCN(c2ncc(C(F)(F)F)cn2)CC1 [Embodiment 16]
7 | 0.01 to 0.1 | O=C(C1CN(Cc2cc(C(F)(F)F)c(=O)[nH]n2)C1)N1CCN(c2ccc(C(F)(F)F)cn2)CC1 [Embodiment 32]
8 | 0.01 to 0.1 | O=C(C1CN(Cc2cc(C(F)(F)F)c(=O)[nH]n2)C1)N1CCN2c3ncc(C(F)(F)F)cc3COC[C@@H]2C1 [Embodiment 44, (S)-4-(trifluoromethyl)-6-((3-(3-(trifluoromethyl)-7,7a,8,9,10,11-hexahydro-5H-pyrazino[2,1-c]pyrido[2,3-e][1,4]oxazepine-9-carbonyl)azetidin-1-yl)methyl)pyridazin-3(2H)-one]
9 | 0.01 to 0.1 | O=C(C1CN(Cc2cc(C(F)(F)F)c(=O)[nH]n2)C1)N1CCN2c3ncc(C(F)(F)F)cc3OCC[C@@H]2C1 [Embodiment 37]
10 | 0.01 to 0.1 | CN(Cc1cc(C(F)(F)F)c(=O)[nH]n1)[C@H]1C[C@H](C(=O)N2CCN(c3ncc(C(F)(F)F)cn3)CC2)C1 [Embodiment 34]
11 | 0.1 to 1 | O=C([C@H]1CCCN(Cc2c[nH]c(=O)c(C(F)(F)F)c2)C1)N1CCN(c2ncc(C(F)(F)F)cn2)CC1 [Embodiment 17]
12 | < 0.01 | COc1cc(N2CCN(C(=O)C3CN(Cc4cc(C(F)(F)F)c(=O)[nH]n4)C3)CC2)ncc1C(F)(F)F [Embodiment 57, 6-((3-(4-(4-methoxy-5-(trifluoromethyl)pyridin-2-yl)piperazine-1-carbonyl)azetidin-1-yl)methyl)-4-(trifluoromethyl)pyridazin-3(2H)-one]
13 | 0.01 to 0.1 | O=c1[nH]nc(CN[C@H]2C[C@H](C(=O)N3CCN(c4ncc(C(F)(F)F)cc4C4CC4)CC3)C2)cc1C(F)(F)F [Embodiment 56]
14 | 0.01 to 0.1 | O=C([C@@H]1CCN(Cc2c[nH]c(=O)c(C(F)(F)F)c2)C1)N1C2CCC1CN(c1ncc(C(F)(F)F)cn1)C2 [Embodiment 10, 3-(trifluoromethyl)-5-(((3R)-3-(3-(5-(trifluoromethyl)pyrimidin-2-yl)-3,8-diazabicyclo[3.2.1]octane-8-carbonyl)pyrrolidin-1-yl)methyl)pyridin-2(1H)-one]
15 | 0.01 to 0.1 | N#Cc1cc(C(F)(F)F)cnc1N1CCN(C(=O)[C@H]2C[C@H](NCc3cc(C(F)(F)F)c(=O)[nH]n3)C2)CC1 [Embodiment 47, 2-(4-((1R,3R)-3-(((6-oxo-5-(trifluoromethyl)-1,6-dihydropyridazin-3-yl)methyl)amino)cyclobutane-1-carbonyl)piperazin-1-yl)-5-(trifluoromethyl)nicotinonitrile]
16 | 0.01 to 0.1 | C[C@H]1CN(C(=O)[C@@H]2CCN(Cc3cc(C(F)(F)F)c(=O)[nH]n3)C2)CCN1c1ncc(C(F)(F)F)cn1 [Embodiment 30]
17 | 0.01 to 0.1 | Cc1cc(C(F)(F)F)cnc1N1CCN(C(=O)[C@H]2C[C@H](NCc3cc(C(F)(F)F)c(=O)[nH]n3)C2)CC1 [Embodiment 53]
18 | 0.01 to 0.1 | O=C([C@@H]1CCCN(Cc2c[nH]c(=O)c(C(F)(F)F)c2)C1)N1CCN(c2ncc(C(F)(F)F)cn2)CC1 [Embodiment 22]
19 | 0.1 to 1 | O=C(C1CN(Cc2n[nH]c(=O)cc2C(F)(F)F)C1)N1CCN(c2ncc(C(F)(F)F)cn2)CC1 [Embodiment 54, 5-(trifluoromethyl)-6-((3-(4-(5-(trifluoromethyl)pyrimidin-2-yl)piperazine-1-carbonyl)azetidin-1-yl)methyl)pyridazin-3(2H)-one]
20 | 0.01 to 0.1 | O=C([C@@H]1CCN(Cc2cc(C(F)(F)F)c(=O)[nH]n2)C1)N1CCN(c2ncc(C(F)(F)F)cn2)CC1 [Embodiment 31]
21 | 1 to 10 | O=c1cc(C(F)(F)F)c(CN[C@H]2C[C@H](C(=O)N3CCN(c4ncc(C(F)(F)F)cn4)CC3)C2)n[nH]1 [Embodiment 55]
22 | 0.01 to 0.1 | CC(C)(c1cc(C(F)(F)F)c(=O)[nH]n1)N1CC(C(=O)N2CCN(c3ncc(C(F)(F)F)cn3)CC2)C1 [Embodiment 49, 4-(trifluoromethyl)-6-(2-(3-(4-(5-(trifluoromethyl)pyrimidin-2-yl)piperazine-1-carbonyl)azetidin-1-yl)propan-2-yl)pyridazin-3(2H)-one]
23 | 0.01 to 0.1 | COc1cc(C(F)(F)F)cnc1N1CCN(C(=O)[C@H]2C[C@H](NCc3cc(C(F)(F)F)c(=O)[nH]n3)C2)CC1 [Embodiment 45]
24 | 1 to 10 | O=C(C1CC2(C1)CN(Cc1c[nH]c(=O)c(C(F)(F)F)c1)C2)N1CCN(c2ncc(C(F)(F)F)cn2)CC1 [Embodiment 21]

Second part, the molecule before the results:

Row | Compound | IC50 [µM]
25 | C[C@H]1CN(C(=O)[C@H]2C[C@H](NCc3c[nH]c(=O)c(C(F)(F)F)c3)C2)CCN1c1ncc(C(F)(F)F)cn1 [Embodiment 23] | < 0.01
26 | Cc1cc2c(C(F)(F)F)cnc(N3CCN(C(=O)[C@H]4C[C@H](NC(C)(C)c5cc(C(F)(F)F)c(=O)[nH]n5)C4)CC3)c2[nH]1 [Embodiment 68, 6-(2-(((1R,3R)-3-(4-(2-methyl-4-(trifluoromethyl)-1H-pyrrolo[2,3-c]pyridin-7-yl)piperazine-1-carbonyl)cyclobutyl)amino)propan-2-yl)-4-(trifluoromethyl)pyridazin-3(2H)-one] | < 0.01
27 | O=C(c1ccc(NCc2c[nH]c(=O)c(C(F)(F)F)c2)cc1)N1C2CCC1CN(c1ncc(C(F)(F)F)cn1)C2 [Embodiment 7] | 0.1 to 1
28 | O=c1cc(OC2CCC2)c(CN[C@H]2C[C@H](C(=O)N3CCN(c4ncc(C(F)(F)F)cn4)CC3)C2)n[nH]1 [Embodiment 52] | 0.01 to 0.1
29 | O=C(C1CN(Cc2n[nH]c(=O)cc2OC2CCC2)C1)N1CCN(c2ncc(C(F)(F)F)cn2)CC1 [Embodiment 51, 5-cyclobutoxy-6-((3-(4-(5-(trifluoromethyl)pyrimidin-2-yl)piperazine-1-carbonyl)azetidin-1-yl)methyl)pyridazin-3(2H)-one] | 0.1 to 1
30 | O=c1[nH]nc(CN[C@H]2C[C@H](C(=O)N3CCN4c5ncc(C(F)(F)F)cc5COC[C@H]4C3)C2)cc1C(F)(F)F [Embodiment 39] | 0.01 to 0.1
31 | N#Cc1cc(C(F)(F)F)cnc1N1CCN(C(=O)C2CC(NCc3cc(C(F)(F)F)c(=O)[nH]n3)C2)CC1 [Embodiment 50, 2-(4-((1R,3R)-3-(((6-oxo-5-(trifluoromethyl)-1,6-dihydropyridazin-3-yl)methyl)amino)cyclobutane-1-carbonyl)piperazin-1-yl)-5-(trifluoromethyl)nicotinonitrile] | 0.01 to 0.1
32 | C[C@@H]1CN(c2ncc(C(F)(F)F)cn2)CCN1C(=O)[C@H]1C[C@H](NCc2c[nH]c(=O)c(C(F)(F)F)c2)C1 [Embodiment 8] | 0.01 to 0.1
33 | CC(C)(N[C@H]1C[C@H](C(=O)N2CCN(c3ncc(C(F)(F)F)cc3C(=O)N3CCCC3)CC2)C1)c1cc(C(F)(F)F)c(=O)[nH]n1 [Embodiment 66] | 0.01 to 0.1
34 | O=c1[nH]cc(CN[C@H]2C[C@H](C(=O)N3CCN(c4ccc(C(F)(F)F)cn4)CC3)C2)cc1C(F)(F)F [Embodiment 28] | 0.01 to 0.1
35 | O=c1[nH]nc(CN[C@H]2C[C@H](C(=O)N3CCN4c5ncc(C(F)(F)F)cc5COC[C@@H]4C3)C2)cc1C(F)(F)F [Embodiment 43] | 0.01 to 0.1
36 | C[C@H]1CN(C(=O)C2CN(Cc3c[nH]c(=O)c(C(F)(F)F)c3)C2)CCN1c1ncc(C(F)(F)F)cn1 [Embodiment 26] | 0.01 to 0.1
37 | O=C(C1CN(Cc2c[nH]c(=O)c(C(F)(F)F)c2)C1)N1CCN(c2cnc(C(F)(F)F)cn2)CC1 [Embodiment 29] | 0.01 to 0.1
38 | CCOc1cc(C(F)(F)F)cnc1N1CCN(C(=O)[C@H]2C[C@H](NC(C)(C)c3cc(C(F)(F)F)c(=O)[nH]n3)C2)CC1 [Embodiment 58] | 0.01 to 0.1
39 | O=c1[nH]nc(CN[C@H]2C[C@H](C(=O)N3CCN4c5ncc(C(F)(F)F)cc5OCC[C@H]4C3)C2)cc1C(F)(F)F [Embodiment 41] | 0.01 to 0.1
40 | C[C@@H](CN1CC[C@H](C(=O)N2C3CCC2CN(c2ncc(C(F)(F)F)cn2)C3)C1)Nc1cn[nH]c(=O)c1C(F)(F)F [Embodiment 6] | 0.01 to 0.1
41 | O=C(C1CN(Cc2c[nH]c(=O)c(C(F)(F)F)c2)C1)N1CCN(c2ccc(C(F)(F)F)cn2)CC1 [Embodiment 27] | 0.01 to 0.1
